The text below walks through data of patent US7018988B2, “Pharmaceutically active pyrrolidine derivatives as Bax inhibitors” (Applied Research Systems ARS Holding N.V., priority 2000, dated 2006).

The target in the assay is T1, Bax (Homo sapiens, UniProt Q07812).
T1 construct: endogenous in cells; host or cells: mitochondria isolated from HeLa cells
Briefly: Effect of compounds on the release of cytochrome c triggered by Bid-induced Bax activation (in vitro assay d). In kind it is biochemical. Particulars: compound at 10 μM; mitochondria isolated from HeLa cells; 10 nM recombinant Bid. As to the method:
d) Effect of Compounds according to formula I onto the Release of Cytochrome c Trig-gered by Bid-Induced Bax Activation (In Vitro Assay)
Concerning the Bid-induced activation of Bax leading to mitochondrial Cytochrome C release, it is referred to the description of Martinou et al. in The Journal of Cell Biology, Vol. 144, No. 5, Mar. 8, 1999, pages 891–901. Mitochondria isolated from HeLa cells are incubated for 15 min at 30° C. in 100 μl of KCl buffer in the presence or absence of 10 nM recombinant Bid. The various compounds (10 μM) are pre-incubated for 5 min prior to addition of Bid. Following incubation, mitochondria were centrifuged for 5 min at 13000 g at 4° C. and the supernatant is collected for cytochrome c analysis. Cytochrome c is detected by Western blotting. The cytochrome c bands are scanned and quantified using a Bio-Rad (GS-700 Imaging Densitometer).
The above set out 2 in vitro assays c) and d) involving the determination of mitochondrial cytochrome c release are based on immunochemical methods using the Western blot analysis. […]

Structures are written as SMILES.

T1 sequence (Q07812 whole entry): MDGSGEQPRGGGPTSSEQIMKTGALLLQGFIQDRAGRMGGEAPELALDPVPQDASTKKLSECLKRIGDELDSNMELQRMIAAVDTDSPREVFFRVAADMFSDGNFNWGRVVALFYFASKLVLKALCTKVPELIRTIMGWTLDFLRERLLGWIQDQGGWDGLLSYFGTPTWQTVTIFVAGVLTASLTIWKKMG

On to `CCCCCNC(=O)N1CC(=NOC)C[C@H]1C(=O)N1CCN(Cc2ccc3c(c2)OCO3)CC1` [Example 28, (2S,4EZ)-2-{[4-(1,3-benzodioxol-5-ylmethyl)-1-piperazinyl]carbonyl}-4-(methoxyimino)-N-pentyl-1-pyrrolidinecarboxamide], for which the inhibition at 10 µM is around 59%.

On to `CCCCCNC(=O)N1CC(=NOC)C[C@H]1C(=O)NCCO` [Example 23, (2S,4EZ)-N^2-(2-hydroxyethyl)-4-(methoxyimino)-N^1-pentyl-1,2-pyrrolidinedicarboxamide], for which the inhibition at 10 µM is around 79%.

A word on the inhibition: it is the share of the control response that was lost under treatment.
